Source: patent US10023575B2, “Cyclic ether derivatives of pyrazolo[1,5-a]pyrimidine-3-carboxyamide” (Boehringer Ingelheim International GmbH, priority 2015, dated 2018)
Read-outs that look alike come from different tables or passages of the source.

What was measured:
PDE 2A = PDE 2A (Homo sapiens (Human), UniProt O00408); assay: Phosphodiesterase (PDE) 2A assay with fluorescent substrate (IMAP, fluorescence polarization); type: biochemical; details: labeled cAMP 30 nM, read-out: PDE2 IC50
Procedure: (§1) The PDE reaction cleaves cAMP to AMP. The IMAP system (Molecular Device) using fluorescence polarization (FP) as detection principle was used to measure enzyme activity. A fluorescent labeled cAMP was used as substrate for the reaction, generating a labeled AMP. The fluorescent AMP binds specifically to the large M(III)-based nano-particles which reduces the rotational speed of the substrate and thus increases its polarization.
(§2) The inhibition of PDE 2A or 10 enzyme activity was assessed using IMAP-Phosphodiesterase-cAMP fluorescence labeled substrate (Molecular Devices, Order No. R7506), IMAP TR-FRET screening express (Molecular Devices, Order No. R8160, the TR-FRET component will not be used) and PDE 2A or PDE10 protein expressed upon baculovirus infection in SF9 cells. The cells were incubated after infection for ˜3 days and protein production was confirmed by Western Blot. The cells were collected by centrifugation and the pellet frozen in liquid nitrogen before it was resuspended in PBS containing 1% Triton X-100 and protease inhibitors. After 45 min incubation on ice, the cell debris was removed by centrifugation (13.000 rpm, 30 min).
(§3) All reactions were performed in 384 well plates, Perkin Elmer black optiplates and IMAP reaction buffer with 0.1% Tween20 (kit component)
(§4) Compounds were serial diluted in DMSO. With an intermediate dilution step with reaction buffer DMSO concentration was reduced to achieve 1% DMSO in the assay reaction. Setup of the assay started with 10 μl enzyme (˜10 ng/well, depending on prep. batch), 5 μl compound, reaction was started by addition of 5 μl labeled cAMP (30 nM, final concentration), immediately mixed for 15 seconds on a Eppendorf mixmate (2000 rpm) followed by an incubation at room temperature for 90 minutes in the dark. Reaction is stopped by adding of 60 μl binding buffer for FP/cAMP (kit component).
(§5) Each assay plate contained wells with vehicle controls (1% DMSO) for the measurement of non-inhibited reaction (=100% control) and wells without enzyme as 0% controls.

PDE10 = PDE10 (Homo sapiens (Human), UniProt Q9Y233); assay: Phosphodiesterase (PDE) 10 assay with fluorescent substrate (IMAP, fluorescence polarization); type: biochemical; details: labeled cAMP 30 nM
Procedure: as §1, §2, §3, §4, §5

[1] = Plasma protein binding with equilibrium dialysis, human plasma; type: in vitro ADME; details: equilibrium dialysis 2 hours 37° C.; for fraction unbound at 2 h, 1 µM: human, pooled human plasma (with NaEDTA), pH 7.4, human plasma, read-out: PPB HUM % BINDING (converted); for PPB HUM % BINDING: human plasma, 1.0 μM
Excerpt: (§6) Plasma Protein Binding (Determination of Human and Rat Plasma Protein Binding with Equilibrium Dialysis)
(§7) This equilibrium dialysis (ED) technique is used to determine the approximate in vitro fractional binding of test compounds to human and rat plasma proteins.
(§8) Dianorm Teflon dialysis cells (micro 0.2) are used. Each cell consists of a donor and an acceptor chamber, separated by an ultrathin semipermeable membrane with a 5 kDa molecular weight cutoff.
(§9) Stock solutions for each test compound are prepared in DMSO at 1 mM and diluted to a final concentration of 1.0 μM. The subsequent dialysis solutions are prepared in pooled human and rat plasma (with NaEDTA)
(§10) Aliquots of 200 μL dialysis buffer (100 mM potassium phosphate, pH 7.4) are dispensed into the buffer chamber. Aliquots of 200 μL test compound dialysis solution are dispensed into the plasma chambers. Incubation is carried out for 2 hours under rotation at 37° C.
(§11) At the end of the dialysis period, the dialysate is transferred into reaction tubes. The tubes for the buffer fraction contain 0.2 ml Acetonitril/water (80/20). Aliquots of 25 μl of the plasma dialysate are transferred into deep well plates and mixed with 25 μl Acetonitril/water (80/20), 25 μl buffer, 25 μl calibration solution and 25 μl Internal Standard solution. Protein precipitation is done by adding 200 μl Acetonitrile. Aliquots of 50 μl of the buffer dialysate are transferred into deep well plates and mixed with 25 μl blank plasma, 25 μl Internal Standard solution and 200 μl Acetonitril. Samples are measured on HPLC-MS/MS-Systems and evaluated with Analyst-Software.
(§12) Percent bound is calculated with the formula: % bound=(plasma concentration−buffer concentration/plasma concentration)×100 and % free is calculated as difference.

[2] = Plasma protein binding with equilibrium dialysis, rat plasma; type: in vitro ADME; details: rat, pooled rat plasma (with NaEDTA), pH 7.4, rat plasma, equilibrium dialysis 2 hours 37° C., read-out: PPB RAT % BINDING (converted)
Excerpt: as §6, §7, §8, §9, §10, §11, §12

[3] = Metabolic stability in pooled human liver microsomes; type: in vitro ADME; details: 1 mg/mL protein, 1 μM compound, 37° C.; for half-life at 1 µM: human, pooled human liver microsomes, pH 7.6, human liver microsomes, read-out: Half-life t½ human; for Half-life t½ human: human liver microsomes
Procedure: The metabolic degradation of the test compound was assayed at 37° C. with pooled liver microsomes from various species. The final incubation volume of 100 μl per time point contains TRIS buffer pH 7.6 at room temperature (0.1 M), magnesium chloride (5 mM), microsomal protein (1 mg/mL for human and dog, 0.5 mg/mL for other species) and the test compound at a final concentration of 1 μM. Following a short preincubation period at 37° C., the reactions were initiated by addition of betanicotinamide adenine dinucleotide phosphate, reduced form (NADPH, 1 mM), and terminated by transferring an aliquot into solvent after different time points. […] The half-life was determined by the slope of the semi-logarithmic plot of the concentration-time profile.

[4] = In-vivo effect: animal experiments and sample analysis (plasma, brain, CSF concentration); details: rat, 0.5 h between administration and CSF sampling, doses of 10.0 or 5 μmol/kg
Procedure: In-Vivo Effect: Animal Experiments and Sample Analysis (CSF):
CSF samples were carefully collected by puncture of the cisterna magna under anesthaesia. Immediately after CSF sampling, blood was taken by heart puncture and brains were dissected out. Blood was collected in EDTA-coated microvettes and plasma was prepared by centrifugation. Concentration of the test compounds in plasma, CSF or brain homogenate was determined using HPLC-MS-MS.

[5] = brain homogenate, read-out: conc brain

Chain of PDE10 (Q9Y233 whole entry): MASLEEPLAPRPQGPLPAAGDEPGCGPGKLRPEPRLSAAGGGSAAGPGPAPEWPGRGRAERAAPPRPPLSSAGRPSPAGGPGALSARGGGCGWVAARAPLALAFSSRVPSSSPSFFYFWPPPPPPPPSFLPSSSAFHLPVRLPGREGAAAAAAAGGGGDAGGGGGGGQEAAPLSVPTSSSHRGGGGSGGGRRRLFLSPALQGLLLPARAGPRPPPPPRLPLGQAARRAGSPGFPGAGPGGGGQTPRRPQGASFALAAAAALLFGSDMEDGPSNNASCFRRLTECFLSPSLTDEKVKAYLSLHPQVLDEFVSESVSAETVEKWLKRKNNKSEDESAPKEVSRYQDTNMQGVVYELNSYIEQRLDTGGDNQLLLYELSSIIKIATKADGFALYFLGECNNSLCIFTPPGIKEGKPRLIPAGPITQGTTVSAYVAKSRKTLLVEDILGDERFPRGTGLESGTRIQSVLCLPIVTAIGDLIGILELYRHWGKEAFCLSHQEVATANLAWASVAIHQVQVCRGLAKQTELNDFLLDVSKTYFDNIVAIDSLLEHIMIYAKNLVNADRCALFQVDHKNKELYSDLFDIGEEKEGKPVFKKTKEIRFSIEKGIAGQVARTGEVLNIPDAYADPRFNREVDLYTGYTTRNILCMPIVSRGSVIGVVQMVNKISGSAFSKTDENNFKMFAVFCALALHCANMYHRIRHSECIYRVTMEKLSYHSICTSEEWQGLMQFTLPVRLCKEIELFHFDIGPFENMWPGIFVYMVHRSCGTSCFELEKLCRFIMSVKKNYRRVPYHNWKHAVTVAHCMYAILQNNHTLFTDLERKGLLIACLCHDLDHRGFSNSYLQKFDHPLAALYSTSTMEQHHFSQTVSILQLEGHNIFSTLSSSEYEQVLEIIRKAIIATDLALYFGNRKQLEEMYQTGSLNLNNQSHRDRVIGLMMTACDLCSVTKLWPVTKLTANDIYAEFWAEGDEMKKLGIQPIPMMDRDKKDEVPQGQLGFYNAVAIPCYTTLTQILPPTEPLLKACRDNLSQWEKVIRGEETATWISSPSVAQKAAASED
Chain of PDE 2A (O00408 whole entry, species assumed): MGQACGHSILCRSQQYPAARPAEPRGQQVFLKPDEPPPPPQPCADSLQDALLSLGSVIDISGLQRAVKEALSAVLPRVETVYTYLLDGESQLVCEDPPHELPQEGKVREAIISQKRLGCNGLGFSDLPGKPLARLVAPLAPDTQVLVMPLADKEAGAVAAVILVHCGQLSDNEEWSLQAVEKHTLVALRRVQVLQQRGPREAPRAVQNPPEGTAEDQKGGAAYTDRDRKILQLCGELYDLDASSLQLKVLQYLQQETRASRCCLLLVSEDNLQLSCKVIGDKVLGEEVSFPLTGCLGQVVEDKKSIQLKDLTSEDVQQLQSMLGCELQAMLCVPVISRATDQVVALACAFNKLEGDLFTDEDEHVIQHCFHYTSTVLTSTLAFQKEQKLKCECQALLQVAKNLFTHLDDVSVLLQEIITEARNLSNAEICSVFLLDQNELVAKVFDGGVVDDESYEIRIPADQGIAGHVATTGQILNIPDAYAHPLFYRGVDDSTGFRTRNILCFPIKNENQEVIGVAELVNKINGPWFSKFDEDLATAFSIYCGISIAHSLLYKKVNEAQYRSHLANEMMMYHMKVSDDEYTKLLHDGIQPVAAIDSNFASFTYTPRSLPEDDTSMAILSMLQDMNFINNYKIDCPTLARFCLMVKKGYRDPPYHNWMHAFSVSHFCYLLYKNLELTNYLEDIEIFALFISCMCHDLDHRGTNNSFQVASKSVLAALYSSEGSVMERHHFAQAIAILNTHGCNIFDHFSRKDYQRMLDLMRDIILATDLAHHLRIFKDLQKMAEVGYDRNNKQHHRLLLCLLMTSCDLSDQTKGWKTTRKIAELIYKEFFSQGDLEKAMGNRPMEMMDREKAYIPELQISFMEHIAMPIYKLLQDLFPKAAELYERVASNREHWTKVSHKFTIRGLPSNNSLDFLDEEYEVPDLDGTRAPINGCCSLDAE

SMILES | IC50 (PDE 2A) [nM] | IC50 (PDE10) [nM] | fraction unbound at 2 h, 1 µM [1] | fraction unbound at 2 h, 1 µM [2] | half-life at 1 µM [3] [h] | also measured
Cc1cnc2c(C(=O)NC3(c4ccc(C(F)(F)F)cc4F)CCCOC3)cnn2c1 (racemic) [Example 31] | 30 | > 10000 | 0.047 | 0.024 |  | 
Cc1cnc2c(C(=O)NC3(c4ccc(C(F)(F)F)cc4F)CCOC3)cnn2c1 (racemic) [Example 35] | 31 | > 10000 | 0.076 | 0.063 |  | 
O=C(NC1(c2ccc(C(F)(F)F)cc2)CCOC1)c1cnn2cc(C3CC3)cnc12 (racemic) [Example 37] | 192 | > 10000 | 0.056 | 0.065 | > 2.17 | 
Cc1cnc2c(C(=O)NC3(c4ccc(C(F)(F)F)cc4F)CCOCC3O)cnn2c1 (racemic) [Example 46] |  | > 10000 | 0.329 | 0.313 | > 2.17 | 
Cc1nn2cc(C3CC3)cnc2c1C(=O)NC1(c2ccc(C(F)(F)F)nc2)CCOCC1O (racemic) [Example 51] |  |  | 0.531 |  | > 2.17 | 
CC1(O)COCCC1(NC(=O)c1cnn2cc(C3CC3)cnc12)c1ccc(C(F)(F)F)cc1F (racemic) [Example 53] |  |  | 0.183 |  |  | 
O=C(NC1(c2ccc(C(F)(F)F)cc2F)COCC1O)c1cnn2cc(C3CC3)cnc12 (single isomer, unassigned) [Example 68] | 24 | > 10000 |  |  |  | PPB HUM % BINDING [1]: 84.4%; Half-life t½ human [3]: >2.17 h
O=C(NC1(c2ccc(C(F)(F)F)cc2F)COCC1O)c1cnn2cc(C3CC3)cnc12 (single isomer, unassigned) [Example 69] | 1740 | > 10000 |  |  |  | PPB HUM % BINDING [1]: 90.7%; Half-life t½ human [3]: 0.883 h
Cc1cnc2c(C(=O)NC3(c4ccc(C(F)(F)F)cc4F)CCOCC3O)cnn2c1 (single isomer, unassigned) [Example 81a] |  | > 10000 | 0.37 | 0.257 | > 2.17 | concentration at 0.5 h [4, 5]: 1070 nM; concentration at 0.5 h ([4]; plasma, read-out: conc plasma): 2460 nM; concentration at 0.5 h ([4]; read-out: conc CSF): 261 nM
Cc1cnc2c(C(=O)NC3(c4ccc(C(F)(F)F)cc4F)CCOCC3(C)O)cnn2c1 (single isomer, unassigned) [Example 83a] |  |  | 0.156 | 0.178 | > 2.17 | concentration at 0.5 h [4, 5]: 449 nM; concentration at 0.5 h ([4]; plasma, read-out: conc plasma): 794 nM; concentration at 0.5 h ([4]; read-out: conc CSF): 61 nM
CC1(O)COCCC1(NC(=O)c1cnn2cc(C3CC3)cnc12)c1ccc(C(F)(F)F)cc1F (single isomer, unassigned) [Example 86a] |  |  | 0.105 | 0.065 |  | 
Cc1nn2cc(C3CC3)cnc2c1C(=O)NC1(c2ccc(C(F)(F)F)nc2)CCOCC1O (single isomer, unassigned) [Example 88b] |  |  | 0.558 |  | > 2.17 | 
Cc1cnc2c(C(=O)NC3(c4ccc(C(F)(F)F)cc4F)CCOCC3)cnn2c1 [Example 2] | 22 | > 10000 | 0.085 | 0.053 | 2 | 
O=C(NC1(c2ccc(C(F)(F)F)cc2F)CCOCC1)c1cnn2cc(F)cnc12 [Example 3] | 266 | > 10000 | 0.157 |  | 1.2 | 
Cc1cnc2c(C(=O)NC3(c4ccc(OC(F)F)c(F)c4)CCOCC3)cnn2c1 [Example 15] | 746 | > 10000 |  |  |  | 
O=C(NC1(c2ccc(Cl)c(F)c2)CCOCC1)c1cnn2cc(C3CC3)cnc12 [Example 16] | 537 | > 10000 |  |  |  | 
Cc1nn2cc(C3CC3)cnc2c1C(=O)NC1(c2ncc(C(F)(F)F)cc2F)CCOCC1 [Example 17] | 39 | 6940 | 0.086 | 0.093 | > 2.17 | 
Cc1cnc2c(C(=O)NC3(c4ncc(C(F)(F)F)cc4F)CCOCC3)c(C)nn2c1 [Example 18] | 129 | 8630 |  |  |  | 
Cc1cnc2c(C(=O)NC3(c4ncc(C(F)(F)F)cc4F)CCOCC3)cnn2c1 [Example 19] | 519 | > 10000 |  |  |  | 
O=C(NC1(c2ncc(C(F)(F)F)cc2F)CCOCC1)c1cnn2cc(C3CC3)cnc12 [Example 20] | 172 | > 10000 |  |  |  | 
Cc1cnc2c(C(=O)NC3(c4ccc(C(F)(F)F)cn4)CCOCC3)c(C)nn2c1 [Example 22] | 119 | 9920 |  |  |  | 
O=C(NC1(c2ccc(C(F)(F)F)cn2)CCOCC1)c1cnn2cc(C3CC3)cnc12 [Example 23] | 232 | > 10000 |  |  |  | 
Cc1cnc2c(C(=O)NC3(c4ccc(C(F)(F)F)cn4)CCOCC3)cnn2c1 [Example 24] | 754 | > 10000 |  |  |  | 
Cc1cnc2c(C(=O)NC3(c4ccc(C(F)(F)F)nc4)CCOCC3)c(C)nn2c1 [Example 26] | 174 | > 10000 |  |  |  | 
O=C(NC1(c2ccc(C(F)(F)F)nc2)CCOCC1)c1cnn2cc(C3CC3)cnc12 [Example 27] | 534 | > 10000 |  |  |  | 
Cc1cnc2c(C(=O)NC3(c4ccc(C(F)(F)F)nc4)CCOCC3)cnn2c1 [Example 28] | 834 | > 10000 |  |  |  | 
Cc1nn2cc(C3CC3)cnc2c1C(=O)NC1(c2cnc(C(F)(F)F)c(F)c2)CCOCC1 [Example 29] | 661 | 5930 |  |  |  | 
O=C(NC1(c2ccc(C(F)(F)F)cc2F)CCOCC1=O)c1cnn2cc(C3CC3)cnc12 (stereo not drawn) [Example 66] | 25 | > 10000 |  |  |  | 
Cc1cnc2c(C(=O)NC3(c4ccc(C(F)(F)F)cc4F)CCOCC3=O)cnn2c1 (stereo not drawn) [Example 67] | 50 | > 10000 |  |  |  | 
